Test results as given in ChEMBL document CHEMBL1629598, “Statistical model to evaluate in vivo activities of antimalarial drugs in a Plasmodium cynomolgi-macaque model for Plasmodium vivax malaria” (2009).
The source made the active and inactive calls. No cut-off for these calls is given here.

Tests used:
Plasmodium cynomolgi [1] = assay: Antimalarial activity against blood-stage of Plasmodium cynomolgi M infected in rhesus macaque assessed as reduction of parasitemia administered intramuscularly twice daily for 8 consecutive days measured on day 28 (reference value: 6.1%); type: functional; set-up: scale not given: the % may be the effect or the level left
Plasmodium cynomolgi [2] = assay: Antimalarial activity against blood-stage of Plasmodium cynomolgi M infected in rhesus macaque assessed as reduction of peak parasitemia administered intramuscularly twice daily measured on day 3; type: functional, organism-based
Plasmodium cynomolgi [3] = assay: Antimalarial activity against blood-stage of Plasmodium cynomolgi M infected in rhesus macaque assessed as reduction of peak parasitemia days administered intramuscularly twice daily measured after 2nd dose (reference value: 3.5%); type: functional
Plasmodium cynomolgi [4] = assay: Antimalarial activity against blood-stage of Plasmodium cynomolgi M infected in rhesus macaque assessed as complete cure at 40 mg/kg, po qd after 4 days; type: functional, organism-based; set-up: dose 40 mg/kg
Plasmodium cynomolgi [5] = assay: Antimalarial activity against blood-stage of Plasmodium cynomolgi M infected in rhesus macaque assessed as reduction of peak parasitemia days at 40 mg/kg, po qd for 8 consecutive days; type: functional
Plasmodium cynomolgi [6] = assay: Antimalarial activity against blood-stage of Plasmodium cynomolgi M infected in rhesus macaque assessed as reduction of parasitemia at 40 mg/kg, po qd for 8 consecutive days (reference value: 4.7%); type: functional; set-up: scale not given: the % may be the effect or the level left
Plasmodium cynomolgi [7] = assay: Antimalarial activity against blood-stage of Plasmodium cynomolgi M infected in rhesus macaque assessed as reduction of peak parasitemia days at 9 mg/kg, po qd for 4 consecutive days; type: functional
Plasmodium cynomolgi [8] = assay: Antimalarial activity against blood-stage of Plasmodium cynomolgi M infected in rhesus macaque assessed as reduction of peak parasitemia days at 3 mg/kg, po qd for 4 consecutive days; type: functional
Plasmodium cynomolgi [9] = assay: Antimalarial activity against blood-stage of Plasmodium cynomolgi M infected in rhesus macaque assessed as reduction of parasitemia days at 27 mg/kg, po qd after 4 to 5 days; type: functional, organism-based; set-up: dose 27 mg/kg
Plasmodium cynomolgi [10] = assay: Antimalarial activity against blood-stage of Plasmodium cynomolgi M infected in rhesus macaque assessed as reduction of peak parasitemia days at 27 mg/kg, po qd for 4 consecutive days; type: functional
Plasmodium cynomolgi [11] = assay: Antimalarial activity against blood-stage of Plasmodium cynomolgi M infected in rhesus macaque assessed as reduction of parasitemia days at 9 mg/kg, po qd after 4 to 5 days; type: functional, organism-based; set-up: dose 9 mg/kg
Plasmodium cynomolgi [12] = assay: Antimalarial activity against blood-stage of Plasmodium cynomolgi M infected in rhesus macaque assessed as reduction of parasitemia at 3 to 27 mg/kg, po qd for 8 consecutive days (reference value: 3%); type: functional; set-up: scale not given: the % may be the effect or the level left; details: dose mg/kg 3-27
Plasmodium cynomolgi [13] = assay: Antimalarial activity against blood-stage of Plasmodium cynomolgi M infected in rhesus macaque assessed as reduction of peak parasitemia days at 3 to 27 mg/kg, po qd for 4 consecutive days; type: functional; details: dose mg/kg 3-27
Plasmodium cynomolgi [14] = assay: Antimalarial activity against blood-stage of Plasmodium cynomolgi M infected in rhesus macaque assessed as reduction of parasitemia days at 3 mg/kg, po qd after 4 to 5 days; type: functional, organism-based; set-up: dose 3 mg/kg

With C[N+]1(CCCCCCCCCCCCCCCC[N+]2(C)CCCC2)CCCC1.[Br-].[Br-] the Activity (Plasmodium cynomolgi [1]) was 0.5%, the Activity (Plasmodium cynomolgi [2]) was “Active” and the Time (Plasmodium cynomolgi [3]) was 0.7 days.

COCC/C(SC(=O)c1ccc(CN2CCOCC2)cc1)=C(\C)N(C=O)CCCCCCCCCCCCN(C=O)/C(C)=C(/CCOC)SC(=O)c1ccc(CN2CCOCC2)cc1.O=C(O)C(O)C(O)C(=O)O was tested, and the Activity (Plasmodium cynomolgi [4]) was “Active”, the Time (Plasmodium cynomolgi [5]) was 1 days and the Activity (Plasmodium cynomolgi [6]) was 1.5%.

With C/C(=C1\CCOC(=O)S1)N(C=O)CCCCCCCCCCCCN(C=O)/C(C)=C1/CCOC(=O)S1 the Time (Plasmodium cynomolgi [7]) was 1.7 days, the Time (Plasmodium cynomolgi [8]) was 2 days and the Activity (Plasmodium cynomolgi [9]) was “Active”. The Time (Plasmodium cynomolgi [10]) was 1.6 days, the Activity (Plasmodium cynomolgi [11]) was “Active” and the Activity (Plasmodium cynomolgi [12]) was 0.6%. The Time (Plasmodium cynomolgi [13]) was 1.9 days and the Activity (Plasmodium cynomolgi [14]) was “Active”.
